The source of these data is ChEMBL document CHEMBL1146950, “Matrix compare analysis discriminates subtle structural differences in a family of novel antiproliferative agents, diaryl-3-hydroxy-2,3,3a,10a-tetrahydrobenzo[b]cycylopenta[e]azepine-4,10(1H,5H)-diones” (2006).

One assay has as its system HOP-62. Nature of the assay: Antiproliferative activity against HOP62 cell line. Also on record: unit not given here. Format: functional, Homo sapiens.
For the next assay, the system named is NCI-H460. The assay can be described thus: Antiproliferative activity against NCI-H460 cell line. The format is functional, Homo sapiens.
Assay [1] concerns the target Vascular endothelial growth factor receptor 1 (Homo sapiens) (UniProt P17948). The assay can be described thus: Inhibition of VEGFR1 at 10 uM in presence of 0.1 uM ATP.
In assay [2] the target is Epidermal growth factor receptor (Homo sapiens) (UniProt P00533). Nature of the assay: Inhibition of EGFR at 10 uM in presence of 0.1 uM ATP.
For assay [3], the target named is Angiopoietin-1 receptor (Homo sapiens) (UniProt Q02763). Nature of the assay: Inhibition of TIE2 at 10 uM in presence of 0.1 uM ATP.
Assay [4] deals with T1, Ephrin type-B receptor 4 (Homo sapiens) (UniProt P54760).
T1 sequence (whole entry): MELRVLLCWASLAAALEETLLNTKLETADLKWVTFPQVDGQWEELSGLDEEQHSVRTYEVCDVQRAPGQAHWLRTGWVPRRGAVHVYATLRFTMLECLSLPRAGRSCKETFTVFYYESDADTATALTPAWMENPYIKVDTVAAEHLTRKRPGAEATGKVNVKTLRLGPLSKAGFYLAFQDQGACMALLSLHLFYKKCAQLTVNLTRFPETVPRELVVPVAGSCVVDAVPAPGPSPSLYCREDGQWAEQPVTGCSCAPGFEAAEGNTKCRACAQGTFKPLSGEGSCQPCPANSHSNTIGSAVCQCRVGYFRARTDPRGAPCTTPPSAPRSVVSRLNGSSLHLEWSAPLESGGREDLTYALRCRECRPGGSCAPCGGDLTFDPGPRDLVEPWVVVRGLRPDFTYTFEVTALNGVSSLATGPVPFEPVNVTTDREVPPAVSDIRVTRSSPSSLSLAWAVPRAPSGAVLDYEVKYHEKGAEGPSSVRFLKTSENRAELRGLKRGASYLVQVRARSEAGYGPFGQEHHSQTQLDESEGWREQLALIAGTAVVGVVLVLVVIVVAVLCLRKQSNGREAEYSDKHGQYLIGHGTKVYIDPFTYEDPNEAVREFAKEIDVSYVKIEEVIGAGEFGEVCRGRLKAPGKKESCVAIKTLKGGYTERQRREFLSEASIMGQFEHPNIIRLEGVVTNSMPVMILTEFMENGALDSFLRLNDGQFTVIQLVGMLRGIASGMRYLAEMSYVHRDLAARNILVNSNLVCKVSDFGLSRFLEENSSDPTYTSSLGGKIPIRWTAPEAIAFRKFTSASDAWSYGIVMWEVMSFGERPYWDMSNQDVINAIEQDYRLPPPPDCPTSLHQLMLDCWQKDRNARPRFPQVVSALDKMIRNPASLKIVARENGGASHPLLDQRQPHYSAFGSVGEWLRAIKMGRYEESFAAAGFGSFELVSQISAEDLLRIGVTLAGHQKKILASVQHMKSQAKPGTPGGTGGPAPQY
The assay can be described thus: Inhibition of EPHB4 at 10 uM in presence of 0.1 uM ATP.

For assay [5], the target named is Insulin-like growth factor 1 receptor (Homo sapiens) (UniProt P08069). Nature of the assay: Inhibition of IGF1R at 10 uM in presence of 0.1 uM ATP.
For assay [6], the target named is Vascular endothelial growth factor receptor 2 (Homo sapiens) (UniProt P35968). Nature of the assay: Inhibition of VEGFR2 at 10 uM in presence of 0.1 uM ATP.
Assay [7] has as its target Receptor tyrosine-protein kinase erbB-2 (Homo sapiens) (UniProt P04626). The assay can be described thus: Inhibition of ErbB2 at 10 uM in presence of 0.1 uM ATP.

Molecules are shown by their SMILES. Where only a bound is given, the exact number is not on record here.

Epidermal growth factor receptor (Homo sapiens), sequence (P00533 whole entry): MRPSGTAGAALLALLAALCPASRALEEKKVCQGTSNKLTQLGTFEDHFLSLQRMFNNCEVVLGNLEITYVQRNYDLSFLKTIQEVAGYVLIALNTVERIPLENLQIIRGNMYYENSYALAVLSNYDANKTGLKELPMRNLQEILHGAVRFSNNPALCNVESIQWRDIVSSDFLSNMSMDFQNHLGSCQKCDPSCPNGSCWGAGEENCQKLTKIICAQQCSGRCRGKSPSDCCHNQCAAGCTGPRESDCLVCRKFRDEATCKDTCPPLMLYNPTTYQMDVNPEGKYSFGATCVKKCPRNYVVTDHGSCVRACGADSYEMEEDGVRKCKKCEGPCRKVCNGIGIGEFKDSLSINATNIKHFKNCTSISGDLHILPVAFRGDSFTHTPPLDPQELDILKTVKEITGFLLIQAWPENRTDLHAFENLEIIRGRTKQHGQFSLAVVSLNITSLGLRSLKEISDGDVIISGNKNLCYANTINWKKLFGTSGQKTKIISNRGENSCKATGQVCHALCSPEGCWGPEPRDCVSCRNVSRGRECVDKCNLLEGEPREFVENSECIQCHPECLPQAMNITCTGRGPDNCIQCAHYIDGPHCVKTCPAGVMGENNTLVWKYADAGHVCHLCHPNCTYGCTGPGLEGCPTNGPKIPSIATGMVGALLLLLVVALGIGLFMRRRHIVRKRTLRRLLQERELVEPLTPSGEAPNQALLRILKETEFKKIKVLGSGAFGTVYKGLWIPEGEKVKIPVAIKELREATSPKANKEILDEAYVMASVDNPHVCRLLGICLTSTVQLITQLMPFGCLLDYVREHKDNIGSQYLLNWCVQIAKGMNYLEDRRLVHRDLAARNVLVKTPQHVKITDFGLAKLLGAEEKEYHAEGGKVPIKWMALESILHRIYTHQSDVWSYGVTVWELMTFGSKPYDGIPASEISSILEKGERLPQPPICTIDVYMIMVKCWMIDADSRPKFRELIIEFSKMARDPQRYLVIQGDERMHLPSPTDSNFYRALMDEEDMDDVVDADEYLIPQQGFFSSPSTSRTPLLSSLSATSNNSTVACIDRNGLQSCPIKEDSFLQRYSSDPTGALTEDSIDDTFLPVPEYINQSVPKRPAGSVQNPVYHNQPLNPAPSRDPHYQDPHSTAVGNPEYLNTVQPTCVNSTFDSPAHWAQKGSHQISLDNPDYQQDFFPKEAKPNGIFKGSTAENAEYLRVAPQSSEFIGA
Receptor tyrosine-protein kinase erbB-2 (Homo sapiens), sequence (P04626 whole entry): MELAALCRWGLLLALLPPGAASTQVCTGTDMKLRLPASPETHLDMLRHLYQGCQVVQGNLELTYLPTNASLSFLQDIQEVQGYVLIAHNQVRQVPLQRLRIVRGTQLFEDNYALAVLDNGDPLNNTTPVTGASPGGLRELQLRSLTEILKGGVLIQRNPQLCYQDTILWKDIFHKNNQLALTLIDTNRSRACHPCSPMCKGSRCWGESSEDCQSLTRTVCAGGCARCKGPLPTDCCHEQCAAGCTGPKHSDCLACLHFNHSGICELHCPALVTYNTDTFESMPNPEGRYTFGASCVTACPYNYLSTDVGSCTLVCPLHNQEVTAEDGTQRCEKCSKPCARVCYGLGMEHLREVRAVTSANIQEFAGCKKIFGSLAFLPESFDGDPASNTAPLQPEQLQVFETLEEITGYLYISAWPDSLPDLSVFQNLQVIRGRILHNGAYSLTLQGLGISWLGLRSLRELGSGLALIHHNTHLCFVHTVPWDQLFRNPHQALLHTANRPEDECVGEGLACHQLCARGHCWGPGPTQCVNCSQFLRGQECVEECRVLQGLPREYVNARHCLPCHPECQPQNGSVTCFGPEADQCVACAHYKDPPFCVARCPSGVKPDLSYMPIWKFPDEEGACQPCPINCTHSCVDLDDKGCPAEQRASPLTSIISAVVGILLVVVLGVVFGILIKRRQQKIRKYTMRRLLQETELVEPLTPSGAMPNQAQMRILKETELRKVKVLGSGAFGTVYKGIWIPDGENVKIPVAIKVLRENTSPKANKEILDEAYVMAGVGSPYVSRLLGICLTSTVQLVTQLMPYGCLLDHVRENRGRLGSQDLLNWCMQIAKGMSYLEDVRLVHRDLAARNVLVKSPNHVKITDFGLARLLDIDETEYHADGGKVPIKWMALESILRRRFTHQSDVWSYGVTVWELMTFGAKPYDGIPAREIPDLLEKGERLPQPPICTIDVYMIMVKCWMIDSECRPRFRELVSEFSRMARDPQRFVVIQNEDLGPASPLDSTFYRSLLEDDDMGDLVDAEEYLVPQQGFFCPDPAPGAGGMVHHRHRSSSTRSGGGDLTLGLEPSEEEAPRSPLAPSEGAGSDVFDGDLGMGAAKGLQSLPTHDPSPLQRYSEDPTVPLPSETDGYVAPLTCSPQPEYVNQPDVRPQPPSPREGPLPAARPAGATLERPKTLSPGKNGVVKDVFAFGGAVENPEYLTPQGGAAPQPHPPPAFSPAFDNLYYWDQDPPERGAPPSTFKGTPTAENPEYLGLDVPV
Angiopoietin-1 receptor (Homo sapiens), sequence (Q02763 whole entry): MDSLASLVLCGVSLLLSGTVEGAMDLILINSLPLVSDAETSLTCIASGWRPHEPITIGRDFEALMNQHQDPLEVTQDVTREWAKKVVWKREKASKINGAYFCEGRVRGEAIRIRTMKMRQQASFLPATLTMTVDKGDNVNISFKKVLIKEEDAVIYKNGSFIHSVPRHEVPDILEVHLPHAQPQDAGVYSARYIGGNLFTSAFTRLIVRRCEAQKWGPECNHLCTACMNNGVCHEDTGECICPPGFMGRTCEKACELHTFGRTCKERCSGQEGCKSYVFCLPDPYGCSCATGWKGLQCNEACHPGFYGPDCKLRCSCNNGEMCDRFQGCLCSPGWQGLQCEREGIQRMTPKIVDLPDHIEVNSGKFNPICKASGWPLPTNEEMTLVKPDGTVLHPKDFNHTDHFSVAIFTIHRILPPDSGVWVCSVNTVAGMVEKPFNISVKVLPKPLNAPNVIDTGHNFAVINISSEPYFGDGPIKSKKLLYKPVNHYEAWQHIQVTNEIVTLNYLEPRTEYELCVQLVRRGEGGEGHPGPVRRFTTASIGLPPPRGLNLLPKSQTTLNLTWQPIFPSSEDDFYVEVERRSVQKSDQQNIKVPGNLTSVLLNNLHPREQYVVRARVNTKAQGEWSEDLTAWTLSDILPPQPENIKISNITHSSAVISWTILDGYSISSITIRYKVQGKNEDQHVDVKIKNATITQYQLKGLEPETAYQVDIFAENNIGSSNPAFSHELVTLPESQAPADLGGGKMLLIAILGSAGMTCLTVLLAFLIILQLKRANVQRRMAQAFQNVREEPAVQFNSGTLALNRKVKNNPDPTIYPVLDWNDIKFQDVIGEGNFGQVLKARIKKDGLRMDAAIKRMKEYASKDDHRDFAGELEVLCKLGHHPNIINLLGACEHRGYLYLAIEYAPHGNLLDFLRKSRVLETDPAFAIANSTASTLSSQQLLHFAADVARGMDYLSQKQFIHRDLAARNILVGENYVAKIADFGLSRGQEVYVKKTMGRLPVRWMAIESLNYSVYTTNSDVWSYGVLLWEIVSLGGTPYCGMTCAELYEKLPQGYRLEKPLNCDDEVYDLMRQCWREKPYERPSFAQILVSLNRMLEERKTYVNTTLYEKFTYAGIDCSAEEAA
Insulin-like growth factor 1 receptor (Homo sapiens), sequence (P08069 31-736 limits assumed): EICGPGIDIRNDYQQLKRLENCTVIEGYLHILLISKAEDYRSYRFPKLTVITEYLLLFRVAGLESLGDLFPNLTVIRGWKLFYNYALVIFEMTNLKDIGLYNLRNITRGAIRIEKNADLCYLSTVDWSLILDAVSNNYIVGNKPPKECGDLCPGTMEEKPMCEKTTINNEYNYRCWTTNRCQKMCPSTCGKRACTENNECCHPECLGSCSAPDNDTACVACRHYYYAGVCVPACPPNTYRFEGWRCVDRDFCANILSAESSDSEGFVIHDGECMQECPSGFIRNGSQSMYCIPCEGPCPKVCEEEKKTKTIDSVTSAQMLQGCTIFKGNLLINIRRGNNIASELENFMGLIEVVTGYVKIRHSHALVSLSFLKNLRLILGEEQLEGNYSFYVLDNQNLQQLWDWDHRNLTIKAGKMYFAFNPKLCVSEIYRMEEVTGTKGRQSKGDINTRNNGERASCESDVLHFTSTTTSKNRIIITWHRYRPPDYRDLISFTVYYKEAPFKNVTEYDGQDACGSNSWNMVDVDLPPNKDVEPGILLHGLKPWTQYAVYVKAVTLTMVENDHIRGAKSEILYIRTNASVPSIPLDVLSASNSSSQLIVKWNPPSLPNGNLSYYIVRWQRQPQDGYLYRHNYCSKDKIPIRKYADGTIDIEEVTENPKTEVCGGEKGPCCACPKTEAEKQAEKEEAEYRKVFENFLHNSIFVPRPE
Insulin-like growth factor 1 receptor (Homo sapiens), sequence (P08069 741-1367 limits assumed): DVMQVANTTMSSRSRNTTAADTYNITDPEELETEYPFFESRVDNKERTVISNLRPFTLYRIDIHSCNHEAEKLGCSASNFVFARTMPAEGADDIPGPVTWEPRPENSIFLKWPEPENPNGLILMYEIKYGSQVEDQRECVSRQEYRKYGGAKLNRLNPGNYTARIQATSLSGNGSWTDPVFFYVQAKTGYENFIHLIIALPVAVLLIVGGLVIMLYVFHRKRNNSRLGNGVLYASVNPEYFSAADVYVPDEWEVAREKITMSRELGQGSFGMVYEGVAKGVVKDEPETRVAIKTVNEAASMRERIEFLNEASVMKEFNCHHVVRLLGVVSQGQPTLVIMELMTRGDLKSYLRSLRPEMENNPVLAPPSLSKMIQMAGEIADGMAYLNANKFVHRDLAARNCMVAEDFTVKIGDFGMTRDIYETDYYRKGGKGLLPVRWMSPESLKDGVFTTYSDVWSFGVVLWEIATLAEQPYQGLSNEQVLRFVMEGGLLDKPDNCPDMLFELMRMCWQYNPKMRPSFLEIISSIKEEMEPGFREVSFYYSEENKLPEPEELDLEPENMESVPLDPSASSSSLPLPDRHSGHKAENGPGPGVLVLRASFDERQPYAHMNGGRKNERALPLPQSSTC

In the case of `O=C1c2ccccc2NC(=O)[C@H]2[C@H]1C[C@@H](c1ccccc1)[C@]2(O)c1ccccc1`, the pGI50 came to 5.4 in the assay with HOP-62 and 5.4 M in the assay on NCI-H460.
Regarding `O=C1c2ccccc2NC(=O)[C@H]2[C@H]1[C@@H](c1ccccc1)C[C@]2(O)c1cccc(Cl)c1`, the pGI50 was over 4 with HOP-62 and 5.7 M with NCI-H460.
Turning to `O=C1c2ccccc2NC(=O)[C@H]2[C@H]1[C@@H](c1cccc(Cl)c1)C[C@]2(O)c1ccccc1`, the inhibition in assay [1], in assay [2], in assay [3], in assay [4], in [5] and in assay [6] was over 50% in each case. Moreover, the inhibition in assay [7] is over 50%. For the same molecule, the pGI50 in the assay on HOP-62 is given as over 4; with NCI-H460 it was 5.2 M.
`Cc1ccc([C@@H]2C[C@H]3C(=O)c4ccccc4NC(=O)[C@@H]3[C@@]2(O)c2ccc(C)cc2)cc1`: the pGI50 in the assay with HOP-62 is 5.2; in the assay on NCI-H460, 5.4 M.
In the same order, the values of `Cc1ccc([C@@]2(O)[C@H](c3ccccc3)C[C@H]3C(=O)c4ccccc4NC(=O)[C@@H]32)cc1` are 5.4 and 4.7 M.
In the case of `Cc1ccc([C@@H]2C[C@H]3C(=O)c4ccccc4NC(=O)[C@@H]3[C@@]2(O)c2ccccc2)cc1`, the pGI50 in the assay with HOP-62 is 5.6; in the assay with NCI-H460, 5.1 M.
For `O=C1c2ccccc2NC(=O)[C@H]2[C@H]1[C@@H](c1ccc(Cl)cc1)C[C@]2(O)c1ccccc1`, the values for the pGI50 with HOP-62 and in the assay on NCI-H460 were over 4 and 5 M, respectively.
On to `O=C1c2ccccc2NC(=O)[C@H]2[C@H]1[C@@H](c1ccccc1)C[C@]2(O)c1ccc2ccccc2c1`, for which the figures for the pGI50 with HOP-62 and in the assay on NCI-H460 were over 4 and 6.7 M, respectively.
In the same order, the values of `O=C1c2ccccc2NC(=O)[C@H]2[C@H]1[C@@H](c1ccccc1)C[C@]2(O)c1ccc2c(c1)OCO2` are 4.1 and 5.6 M.
In the case of `O=C1c2ccccc2NC(=O)[C@H]2[C@H]1C[C@@H](c1cccc(Cl)c1)[C@]2(O)c1ccccc1`, the pGI50 with HOP-62 is 5.1; in the assay with NCI-H460, 4.6 M.
In the same order, the values of `O=C1c2ccccc2NC(=O)[C@H]2[C@H]1C[C@@H](c1ccc(Cl)cc1)[C@]2(O)c1ccccc1` are 5.6 and 5.4 M.
Consider `COc1ccc([C@H]2C[C@](O)(c3cccc(Cl)c3)[C@H]3C(=O)Nc4ccccc4C(=O)[C@H]23)cc1`, for which the results for the pGI50 with HOP-62 and with NCI-H460 were over 4 and 5 M, respectively.
Consider `COc1ccc([C@@H]2C[C@H]3C(=O)c4ccccc4NC(=O)[C@@H]3[C@@]2(O)c2ccccc2)cc1`, for which the pGI50 with HOP-62 is given as 5.6; in the assay with NCI-H460, 4.9 M.
In the same order, the values of `COc1ccc([C@H]2C[C@](O)(c3ccccc3)[C@H]3C(=O)Nc4ccccc4C(=O)[C@H]23)cc1` are over 4 and 5.1 M.
For `Cc1ccc([C@@]2(O)[C@H](c3ccc(Cl)cc3)C[C@H]3C(=O)c4ccccc4NC(=O)[C@@H]32)cc1`, in that order: 5.3 and 5.7 M.
